Measurements reported in ChEMBL document CHEMBL3885861, “Open TG-GATES”.

Species: Rattus norvegicus
Assay: Open TG-GATES - Regimen: Single
Format: toxicity, organism-based, Sprague-Dawley
Parameters: regimen Single, gender Male, age 6 weeks
Settings: in vivo, iv, route intravenous injection; for KIDNEY_L / KIDNEY_R / KIDNEY_TOTAL: tissue Kidney; for LIVER: tissue Liver; for ALP / ALT / BUN / CRE / DBIL / GLC / IP / K / LDH / PL / RALB / TBIL / TC / TG / TP / gamma-GTP / AST / Na: tissue Plasma
[1] = 30 mg/kg, 3 h, tissue Blood, dose level Middle
[2] = 30 mg/kg, 3 h, dose level Middle
[3] = 30 mg/kg, 6 h, tissue Blood, dose level Middle
[4] = 30 mg/kg, 6 h, dose level Middle
[5] = 30 mg/kg, 9 h, dose level Middle
[6] = 30 mg/kg, 9 h, tissue Blood, dose level Middle
[7] = 30 mg/kg, 24 h, dose level Middle
[8] = 30 mg/kg, 24 h, tissue Blood, dose level Middle
[9] = 100 mg/kg, 3 h, tissue Blood, dose level High
[10] = 100 mg/kg, 3 h, dose level High
[11] = 100 mg/kg, 6 h, dose level High
[12] = 100 mg/kg, 6 h, tissue Blood, dose level High
[13] = 100 mg/kg, 9 h, dose level High
[14] = 100 mg/kg, 9 h, tissue Blood, dose level High
[15] = 100 mg/kg, 24 h, dose level High
[16] = 100 mg/kg, 24 h, tissue Blood, dose level High

Sequence: CARBOPLATIN
- APTT [1]: 23.3 s
- Bas [1]: 0%
- Eos [1]: 1%
- Fbg [1]: 273.2 mg/dL
- Hb [1]: 13 g/dL
- Ht [1]: 40.3%
- Lym [1]: 81.8%
- MCV [1]: 63.6 fL
- Mono [1]: 2.4%
- PT [1]: 15.6 s
- Plat [1]: 123.8 x10_4/uL
- RBC [1]: 633.4 x10_4/ul
- Ret [1]: 5.6%
- WBC [1]: 77.3 x10_2/uL
- KIDNEY_L [2]: 0.9 g
- KIDNEY_R [2]: 0.9 g
- KIDNEY_TOTAL [2]: 1.9 g
- LIVER [2]: 9.5 g
- ALP [2]: 1595 IU/L
- ALT [2]: 41.4 IU/L
- BUN [2]: 11 mg/dL
- CRE [2]: 0.2 mg/dL
- DBIL [2]: 0 mg/dL
- GLC [2]: 175 mg/dL
- IP [2]: 8.6 mg/dL
- K [2]: 4 meq/L
- LDH [2]: 183.4 IU/L
- PL [2]: 126.6 mg/dL
- RALB [2]: 3 g/dL
- TBIL [2]: 0.014 mg/dL
- TC [2]: 67 mg/dL
- TG [2]: 75 mg/dL
- TP [2]: 5.4 g/dL
- gamma-GTP [2]: 1.2 IU/L
- APTT [3]: 22.6 s
- Bas [3]: 0%
- Eos [3]: 0.8%
- Fbg [3]: 273.4 mg/dL
- Hb [3]: 12.8 g/dL
- Ht [3]: 39.7%
- Lym [3]: 77.4%
- MCHC [3]: 32.2%
- MCV [3]: 63.8 fL
- Mono [3]: 4%
- Neu [3]: 16.6%
- PT [3]: 15.9 s
- Plat [3]: 120 x10_4/uL
- RBC [3]: 623.2 x10_4/ul
- Ret [3]: 6.3%
- WBC [3]: 102.3 x10_2/uL
- KIDNEY_L [4]: 0.9 g
- KIDNEY_R [4]: 0.9 g
- KIDNEY_TOTAL [4]: 1.8 g
- LIVER [4]: 8.7 g
- ALP [4]: 1276.8 IU/L
- ALT [4]: 42 IU/L
- AST [4]: 77.8 IU/L
- CRE [4]: 0.2 mg/dL
- DBIL [4]: 0 mg/dL
- GLC [4]: 174.6 mg/dL
- IP [4]: 9.6 mg/dL
- K [4]: 4.4 meq/L
- Na [4]: 139.4 meq/L
- PL [4]: 126 mg/dL
- RALB [4]: 2.9 g/dL
- TBIL [4]: 0.012 mg/dL
- TC [4]: 73.4 mg/dL
- TG [4]: 68.6 mg/dL
- TP [4]: 5.3 g/dL
- gamma-GTP [4]: 1 IU/L
- TERMINAL_BW [5]: 197.2 g
- APTT [6]: 24.3 s
- Bas [6]: 0%
- Eos [6]: 0.6%
- Fbg [6]: 280.2 mg/dL
- Hb [6]: 12.8 g/dL
- Ht [6]: 39.6%
- Lym [6]: 72.2%
- MCHC [6]: 32.4%
- MCV [6]: 62 fL
- Mono [6]: 2.4%
- Neu [6]: 24%
- PT [6]: 15.9 s
- Plat [6]: 119 x10_4/uL
- RBC [6]: 638.6 x10_4/ul
- Ret [6]: 5.9%
- WBC [6]: 68.8 x10_2/uL
- KIDNEY_L [5]: 0.9 g
- KIDNEY_R [5]: 1 g
- KIDNEY_TOTAL [5]: 1.9 g
- LIVER [5]: 7.9 g
- ALP [5]: 1295.4 IU/L
- ALT [5]: 38.8 IU/L
- AST [5]: 81 IU/L
- BUN [5]: 10 mg/dL
- CRE [5]: 0.1 mg/dL
- DBIL [5]: 0 mg/dL
- GLC [5]: 173.6 mg/dL
- IP [5]: 9.7 mg/dL
- K [5]: 4.3 meq/L
- LDH [5]: 182.2 IU/L
- Na [5]: 139.6 meq/L
- PL [5]: 118.8 mg/dL
- RALB [5]: 2.9 g/dL
- TBIL [5]: 0.014 mg/dL
- TC [5]: 63 mg/dL
- TG [5]: 55 mg/dL
- TP [5]: 5.4 g/dL
- gamma-GTP [5]: 1.2 IU/L
- TERMINAL_BW [7]: 208.3 g
- APTT [8]: 23 s
- Bas [8]: 0%
- Eos [8]: 0.8%
- Fbg [8]: 295.6 mg/dL
- Hb [8]: 12.9 g/dL
- Ht [8]: 39.9%
- Lym [8]: 88.4%
- MCHC [8]: 32.2%
- Mono [8]: 3.4%
- Neu [8]: 6.6%
- PT [8]: 16.1 s
- Plat [8]: 125 x10_4/uL
- RBC [8]: 639.8 x10_4/ul
- Ret [8]: 4.5%
- WBC [8]: 72.2 x10_2/uL
- KIDNEY_L [7]: 0.9 g
- KIDNEY_R [7]: 1 g
- KIDNEY_TOTAL [7]: 1.9 g
- LIVER [7]: 9.3 g
- ALP [7]: 1504.2 IU/L
- ALT [7]: 44.8 IU/L
- AST [7]: 72.8 IU/L
- CRE [7]: 0.2 mg/dL
- DBIL [7]: 0.002 mg/dL
- GLC [7]: 179.6 mg/dL
- IP [7]: 8.1 mg/dL
- K [7]: 4.3 meq/L
- LDH [7]: 211.2 IU/L
- Na [7]: 139.8 meq/L
- PL [7]: 126.6 mg/dL
- RALB [7]: 3 g/dL
- TBIL [7]: 0.02 mg/dL
- TC [7]: 70.4 mg/dL
- TG [7]: 60.4 mg/dL
- TP [7]: 5.5 g/dL
- gamma-GTP [7]: 1.2 IU/L
- APTT [9]: 22.8 s
- Bas [9]: 0%
- Eos [9]: 0.6%
- Fbg [9]: 275 mg/dL
- MCHC [9]: 32.4%
- MCV [9]: 64.2 fL
- Mono [9]: 2.8%
- Neu [9]: 17.2%
- PT [9]: 15.7 s
- Plat [9]: 123.5 x10_4/uL
- RBC [9]: 630.8 x10_4/ul
- Ret [9]: 6.4%
- WBC [9]: 81.4 x10_2/uL
- KIDNEY_L [10]: 0.9 g
- KIDNEY_R [10]: 0.9 g
- KIDNEY_TOTAL [10]: 1.9 g
- LIVER [10]: 9.2 g
- ALP [10]: 1630.8 IU/L
- ALT [10]: 45 IU/L
- BUN [10]: 12 mg/dL
- CRE [10]: 0.2 mg/dL
- DBIL [10]: 0 mg/dL
- GLC [10]: 170.6 mg/dL
- IP [10]: 9.1 mg/dL
- K [10]: 4.2 meq/L
- LDH [10]: 173.8 IU/L
- PL [10]: 129 mg/dL
- RALB [10]: 3 g/dL
- TBIL [10]: 0.014 mg/dL
- TC [10]: 69.8 mg/dL
- TG [10]: 70.8 mg/dL
- TP [10]: 5.3 g/dL
- gamma-GTP [10]: 1.2 IU/L
- TERMINAL_BW [11]: 200.2 g
- APTT [12]: 24.4 s
- Bas [12]: 0%
- Eos [12]: 0.8%
- Fbg [12]: 286.8 mg/dL
- Ht [12]: 41.1%
- Lym [12]: 76%
- MCH [12]: 20 pg
- MCHC [12]: 32.2%
- MCV [12]: 62.2 fL
- Mono [12]: 6.4%
- Plat [12]: 125.8 x10_4/uL
- RBC [12]: 663.8 x10_4/ul
- Ret [12]: 5.2%
- WBC [12]: 91 x10_2/uL
- KIDNEY_L [11]: 1 g
- KIDNEY_R [11]: 1 g
- KIDNEY_TOTAL [11]: 1.9 g
- LIVER [11]: 8.2 g
- ALP [11]: 1531.2 IU/L
- ALT [11]: 40.4 IU/L
- AST [11]: 84.4 IU/L
- BUN [11]: 10.8 mg/dL
- CRE [11]: 0.2 mg/dL
- DBIL [11]: 0 mg/dL
- GLC [11]: 176.6 mg/dL
- IP [11]: 9.5 mg/dL
- K [11]: 4.2 meq/L
- LDH [11]: 177.8 IU/L
- Na [11]: 140 meq/L
- PL [11]: 109.6 mg/dL
- RALB [11]: 2.9 g/dL
- TBIL [11]: 0.02 mg/dL
- TC [11]: 61.8 mg/dL
- TG [11]: 37.4 mg/dL
- TP [11]: 5.3 g/dL
- gamma-GTP [11]: 1.2 IU/L
- TERMINAL_BW [13]: 204.6 g
- APTT [14]: 24.9 s
- Bas [14]: 0%
- Eos [14]: 0.8%
- Fbg [14]: 299.4 mg/dL
- Ht [14]: 40.5%
- Lym [14]: 73.8%
- MCHC [14]: 32.4%
- MCV [14]: 62.8 fL
- Mono [14]: 3.4%
- Neu [14]: 21.2%
- PT [14]: 15.9 s
- Plat [14]: 136.6 x10_4/uL
- RBC [14]: 645.2 x10_4/ul
- Ret [14]: 6.1%
- WBC [14]: 69 x10_2/uL
- KIDNEY_L [13]: 0.9 g
- KIDNEY_R [13]: 1 g
- KIDNEY_TOTAL [13]: 1.9 g
- LIVER [13]: 8.4 g
- ALP [13]: 1146.6 IU/L
- ALT [13]: 34.4 IU/L
- AST [13]: 72.8 IU/L
- CRE [13]: 0.2 mg/dL
- DBIL [13]: 0 mg/dL
- GLC [13]: 174.8 mg/dL
- IP [13]: 9.9 mg/dL
- K [13]: 4.5 meq/L
- LDH [13]: 172.4 IU/L
- Na [13]: 139.4 meq/L
- RALB [13]: 2.9 g/dL
- TBIL [13]: 0.022 mg/dL
- TC [13]: 69.2 mg/dL
- TG [13]: 54.4 mg/dL
- TP [13]: 5.2 g/dL
- gamma-GTP [13]: 1.6 IU/L
- TERMINAL_BW [15]: 203.7 g
- APTT [16]: 23.6 s
- Bas [16]: 0%
- Eos [16]: 0.2%
- Fbg [16]: 306.2 mg/dL
- Hb [16]: 12.9 g/dL
- Ht [16]: 40.2%
- Lym [16]: 82.6%
- MCHC [16]: 32.2%
- Mono [16]: 4%
- Neu [16]: 12%
- PT [16]: 16.2 s
- Plat [16]: 123.1 x10_4/uL
- RBC [16]: 641.4 x10_4/ul
- Ret [16]: 2.7%
- WBC [16]: 69.6 x10_2/uL
- KIDNEY_L [15]: 0.9 g
- KIDNEY_R [15]: 1 g
- KIDNEY_TOTAL [15]: 1.9 g
- LIVER [15]: 8.8 g
- ALP [15]: 1486.6 IU/L
- ALT [15]: 41.2 IU/L
- AST [15]: 76.8 IU/L
- CRE [15]: 0.2 mg/dL
- DBIL [15]: 0.002 mg/dL
- GLC [15]: 179.2 mg/dL
- IP [15]: 8.4 mg/dL
- K [15]: 4.3 meq/L
- LDH [15]: 176.8 IU/L
- PL [15]: 135.6 mg/dL
- RALB [15]: 3.1 g/dL
- TBIL [15]: 0.022 mg/dL
- TC [15]: 78.6 mg/dL
- TG [15]: 51.2 mg/dL
- TP [15]: 5.6 g/dL
- gamma-GTP [15]: 1.2 IU/L
